Measurements from patent US9012642B2, “Pyrrolopyridinone compounds and methods for treating HIV” (ViiV Healthcare UK Limited, priority 2011, dated 2015).
Like-named read-outs stand apart in the source and are kept apart here.

Tested on: HIV
Assay: HIV MT4 Assay (antiviral HIV activity in MT-4 cells)
Assay type: cell-based
Method: Antiviral HIV activity and cytotoxicity values for compounds of the invention from Table 1 were measured in parallel in the HTLV-1 transformed cell line MT-4 based on the method previously described (Hazen et al., 2007, In vitro antiviral activity of the novel, tyrosyl-based human immunodeficiency virus (HIV) type 1 protease inhibitor brecanavir (GW640385) in combination with other antiretrovirals and against a panel of protease inhibitor-resistant HIV (Hazen et al., “In vitro antiviral activity of the novel, tyrosyl-based human immunodeficiency virus (HIV) type 1 protease inhibitor brecanavir (GW640385) in combination with other antiretrovirals and against a panel of protease inhibitor-resistant HIV”, Antimicrob. Agents Chemother. 2007, 51: 3147-3154; and Pauwels et al., “Sensitive and rapid assay on MT-4 cells for the detection of antiviral compounds against the AIDS virus”, (J. of Virological Methods 1987, 16: 171-185).
Luciferase activity was measured 96 hours later by adding a cell titer glo (Promega, Madison, Wis.). Percent inhibition of cell protection data was plotted relative to no compound control. Under the same condition, cytotoxicity of the compounds was determined using cell titer Glo™ (Promega, Madison, Wis.). IC50s were determined from a 10 point dose response curve using 3-4-fold serial dilution for each compound, which spans a concentration range >1000 fold.
These values are plotted against the molar compound concentrations using the standard four parameter logistic equation: y=((Vmax*x^n)/(K^n+x^n))+Y^2
Y^2=minimum y n=slope factor
Vmax=maximum y x=compound concentration [M]

[1] = Human immunodeficiency virus 1, MT4, HTLV-1 transformed cell line MT-4, luciferase activity measured 96 hours later, Table 3, read-out: HIV MT4 Assay IC50
[2] = MT4, 96 h, read-out: MT4 (IC50)

SMILES | IC50 [1] | IC50 [2]
Cn1c(C(OC(C)(C)C)C(=O)O)c(-c2ccc(Cl)cc2)c2c(Br)cn(Cc3ccccc3)c2c1=O (centres unmarked) [Example 14, 2-(1-benzyl-3-bromo-4-(4-chlorophenyl)-6-methyl-7-oxo-6,7-dihydro-1H-pyrrolo[2,3-c]pyridin-5-yl)-2-(tert-butoxy)acetic acid] | 750 nM | 750 nM
COc1ccc(Cn2c3c(c4c(-c5ccc6c(c5C)CCCO6)c(C(OC(C)(C)C)C(=O)O)n(C)c(=O)c42)CCCC3)cc1 (centres unmarked) [Example 62, 2-(tert-butoxy)-2-(9-(4-methoxybenzyl)-2-methyl-4-(5-methylchroman-6-yl)-1-oxo-2,5,6,7,8,9-hexahydro-1H-pyrido[3,4-b]indol-3-yl)acetic acid] | 50 nM | 50 nM
Cn1c([C@H](OC(C)(C)C)C(=O)O)c(-c2ccc(Cl)cc2)c2ccn(Cc3ccc(F)c(F)c3)c2c1=O [Example 6, (S)-2-(tert-butoxy)-2-(4-(4-chlorophenyl)-1-(3,4-difluorobenzyl)-6-methyl-7-oxo-6,7-dihydro-1H-pyrrolo[2,3-c]pyridin-5-yl)acetic acid] | 140 nM | 140 nM
Cc1ccc(-c2c(C(OC(C)(C)C)C(=O)O)n(C)c(=O)c3c2ccn3Cc2ccc(F)c(F)c2)cc1 (centres unmarked) [Example 28, 2-(tert-butoxy)-2-(1-(3,4-difluorobenzyl)-6-methyl-7-oxo-4-(p-tolyl)-6,7-dihydro-1H-pyrrolo[2,3-c]pyridin-5-yl)acetic acid] | 80 nM | 80 nM
Cc1ccc(-c2c(C(OC(C)(C)C)C(=O)O)n(C)c(=O)c3c2ccn3CCc2ccc(F)cc2)cc1 (centres unmarked) [Example 26, 2-(tert-butoxy)-2-(1-(4-fluorophenethyl)-6-methyl-7-oxo-4-(p-tolyl)-6,7-dihydro-1H-pyrrolo[2,3-c]pyridin-5-yl)acetic acid] | 2250 nM | 2250 nM
Cn1c(C(OC(C)(C)C)C(=O)O)c(-c2ccc(Cl)cc2)c2ccn(Cc3ccccc3)c2c1=O (centres unmarked) [Example 1, 2-(1-benzyl-4-(4-chlorophenyl)-6-methyl-7-oxo-6,7-dihydro-1H-pyrrolo[2,3-c]pyridin-5-yl)-2-(tert-butoxy)acetic acid] | 220 nM | 220 nM
Cn1c(C(OC(C)(C)C)C(=O)O)c(-c2ccc(F)cc2)c2ccn(Cc3ccc(F)cc3)c2c1=O (centres unmarked) [Example 37, 2-(tert-butoxy)-2-(1-(4-fluorobenzyl)-4-(4-fluorophenyl)-6-methyl-7-oxo-6,7-dihydro-1H-pyrrolo[2,3-c]pyridin-5-yl)acetic acid] | 670 nM | 670 nM
Cc1ccc(-c2c(C(OC(C)(C)C)C(=O)O)n(C)c(=O)c3c2c2ccccc2n3Cc2ccc(F)cc2)cc1 (centres unmarked) [Example 56, 2-(tert-butoxy)-2-(9-(4-fluorobenzyl)-2-methyl-1-oxo-4-(p-tolyl)-2,9-dihydro-1H-pyrido[3,4-b]indol-3-yl)acetic acid] | 740 nM | 740 nM
Cc1c(-c2c(C(OC(C)(C)C)C(=O)O)n(C)c(=O)c3c2ccn3Cc2cc(F)ccc2F)ccc2c1CCCO2 (centres unmarked) [Example 48, 2-(tert-butoxy)-2-(1-(2,5-difluorobenzyl)-6-methyl-4-(5-methylchroman-6-yl)-7-oxo-6,7-dihydro-1H-pyrrolo[2,3-c]pyridin-5-yl)acetic acid] | 30 nM | 30 nM
Cn1c(C(OC(C)(C)C)C(=O)O)c(-c2ccc(Cl)cc2)c2ccn(Cc3cn(CCO)nn3)c2c1=O (centres unmarked) [Example 18, 2-(tert-butoxy)-2-(4-(4-chlorophenyl)-1-((1-(2-hydroxyethyl)-1H-1,2,3-triazol-4-yl)methyl)-6-methyl-7-oxo-6,7-dihydro-1H-pyrrolo[2,3-c]pyridin-5-yl)acetic acid] | 50000 nM | 50000 nM
Cc1ccc(-c2c(C(OC(C)(C)C)C(=O)O)n(C)c(=O)c3c2ccn3-c2ccc(F)cc2)cc1 (centres unmarked) [Example 34, 2-(tert-butoxy)-2-(1-(4-fluorophenyl)-6-methyl-7-oxo-4-(p-tolyl)-6,7-dihydro-1H-pyrrolo[2,3-c]pyridin-5-yl)acetic acid] | 770 nM | 770 nM
Cc1c(-c2c(C(OC(C)(C)C)C(=O)O)n(C)c(=O)c3c2ccn3CC2CCCCC2)ccc2c1CCCO2 (centres unmarked) [Example 51, 2-(tert-butoxy)-2-(1-(cyclohexylmethyl)-6-methyl-4-(5-methylchroman-6-yl)-7-oxo-6,7-dihydro-1H-pyrrolo[2,3-c]pyridin-5-yl)acetic acid] | 100 nM | 100 nM
COCCn1ccc2c(-c3ccc4c(c3C)CCCO4)c(C(OC(C)(C)C)C(=O)O)n(C)c(=O)c21 (centres unmarked) [Example 43, 2-(tert-butoxy)-2-(1-(2-methoxyethyl)-6-methyl-4-(5-methylchroman-6-yl)-7-oxo-6,7-dihydro-1H-pyrrolo[2,3-c]pyridin-5-yl)acetic acid] | 1100 nM | 1100 nM
Cc1cn(Cc2ccccc2)c2c(=O)n(C)c(C(OC(C)(C)C)C(=O)O)c(-c3ccc(Cl)cc3)c12 (centres unmarked) [Example 15, 2-(1-benzyl-4-(4-chlorophenyl)-3,6-dimethyl-7-oxo-6,7-dihydro-1H-pyrrolo[2,3-c]pyridin-5-yl)-2-(tert-butoxy)acetic acid] | 1620 nM | 1620 nM
Cc1ccc(Cn2ccc3c(-c4ccc5c(c4C)CCCO5)c(C(OC(C)(C)C)C(=O)O)n(C)c(=O)c32)cc1F (centres unmarked) [Example 49, 2-(tert-butoxy)-2-(1-(3-fluoro-4-methylbenzyl)-6-methyl-4-(5-methylchroman-6-yl)-7-oxo-6,7-dihydro-1H-pyrrolo[2,3-c]pyridin-5-yl)acetic acid] | 40 nM | 40 nM
Cc1ccc(-c2c(C(OC(C)(C)C)C(=O)O)n(C)c(=O)c3c2ccn3CC(=O)Nc2ccc(F)cc2)cc1 (centres unmarked) [Example 35, 2-(tert-butoxy)-2-(1-(2-((4-fluorophenyl)amino)-2-oxoethyl)-6-methyl-7-oxo-4-(p-tolyl)-6,7-dihydro-1H-pyrrolo[2,3-c]pyridin-5-yl)acetic acid] | 1000 nM | 1000 nM
